In patent US12503448B2, “Antibacterial and antiparasitic quinoxaline-2,3-diamine derivatives” (University College Cardiff Consultants Limited, priority 2019, dated 2025):
In brackets after ≈: the same amount, converted by molar mass. Where two headings read alike, the source gives them in different places.

Experiments:
MRSA EM RSA = test: In vitro antibacterial activity; assay type: cell-based; details: Staphylococcus aureus
Excerpt: In vitro Determination of Antibacterial Activity
Scientific Reports 8 (1), 2018. Bacterial strains of Enterococcus faecalis—ATCC 29212, NCTC 12201, ATCC 51299; Streptococcus pneumoniae—ATCC 49619, 18778, 21394, 21395; Haemophilus influenza—ATCC 49766, 18391, 17428; Staphylococcus aureus—NCTC 12493, ATCC BAA-077, ATCC 700698, 11051; used for testing the compounds, as previously described in “Clinical laboratory testing and in vitro diagnostics test systems—Susceptibility testing of infectious agents and evaluation of performance of antimicrobial susceptibility devices—Part 1: Reference methods for testing the in vitro activity of antimicrobial agentes against bacteria involved in infectious diseases, ISO/FDIS 20776-1:2006(E). All the procedures were carried out in a biosafety containment level 2.

MRSA ATCC 33591 = test: In vitro antibacterial activity; assay type: cell-based; details: Staphylococcus aureus
B. cereus = test: In vitro antibacterial activity; assay type: cell-based; details: Bacillus cereus
[1] = Mouse pharmacokinetics, oral cassette dosing
Description: Non-compartmental mouse pharmacokinetics (Male C57/BL6 Mouse, Fasted; 3 mice per group) were determined after oral administration of a nominal dose of 2.5 mg/kg of these formulations in cassettes (5 compounds/group) according to the protocols employed by WuXi (https://www.wuxiapptec.com; the CRO that conducted these studies).

S. aureus ATCC 29213 = test: In vitro antibacterial activity; assay type: cell-based; details: Staphylococcus aureus, ATCC29213
S. mansoni schistosomula = test: 72 hours schistosomula drug screen; assay type: cell-based, Schistosoma mansoni; details: for Selectivity Index Schistosomula: HepG2 CC50 over schistosomula EC50; for EC50: Schistosoma mansoni
Method in brief: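 Newly transformed S. mansoni schistosomula were screened for 72 h in 384-well format. Phenotype and motility were scored, and a schistosomula average was derived.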

[2] = system: F. hepatica newly excysted juveniles (NEJs); test: Newly excysted juveniles (NEJs) drug screen; assay type: cell-based, Fasciola hepatica; parameters: scale not given here; details: 10 μM, 72 h; higher score indicates lower worm activity
Method in brief: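 Italian-strain F. hepatica NEJs, 25 per well, exposed to compound at 10 μM (0.1% DMSO) for 72 h at 37 °C, 5% CO2. Each parasite scored for phenotype and motility; averaged over two replicates, higher score meaning lower worm activity.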

[3] = system: Pseudomonas aeruginosa ATCC 27853; test: In vitro antibacterial activity; assay type: cell-based; details: ATCC27853
E. coli ATCC 25922 = test: In vitro antibacterial activity; assay type: cell-based; details: Escherichia coli, ATCC25922
S. epidermidis NTCT11077 = test: In vitro antibacterial activity; assay type: cell-based; details: Staphylococcus epidermidis
[4] = system: M. smegmatis mc^2 15 ATCC 700084; test: In vitro antibacterial activity; assay type: cell-based, Mycobacterium smegmatis; details: Mycolicibacterium smegmatis, ATCC700084
MRSA USA 300 = test: In vitro antibacterial activity; assay type: cell-based; details: Staphylococcus aureus
[5] = male, C57/BL6, mouse, plasma, po, 2.5 mg/kg
[6] = S. aureus ATCC 29213, read-out: MIC90
[7] = average of phenotype and motility, read-out: EC50 Schistosomula average
[8] = schistosomula, 72 hour culture, read-out: EC50 Motility
[9] = schistosomula, 72 hour culture, read-out: EC50 Phenotype
[10] = Pseudomonas aeruginosa ATCC 27853, read-out: MIC90
[11] = E. coli ATCC 25922, read-out: MIC90
[12] = S. epidermidis NTCT11077, read-out: MIC90
[13] = M. smegmatis mc^2 15 ATCC 700084, read-out: MIC90
[14] = oral, nominal dose 2.5 mg/kg, cassette

Compound	MIC90 (MRSA EM RSA) [µg/mL]	MIC90 (MRSA ATCC 33591) [µg/mL]	MIC90 (B. cereus; B. cereus, read-out: MIC90) [µg/mL]	AUC(0-t) [1, 5] [ng·h/mL]	Cmax [1, 5] [ng/mL]	MRT last [1, 5] [h]	Tmax [1, 5] [h]	MIC90 (S. aureus ATCC 29213; [6]) [µg/mL]	Selectivity Index Schistosomula (S. mansoni schistosomula)	EC50 (S. mansoni schistosomula; [7]) [nM]	EC50 (S. mansoni schistosomula; [8]) [nM]	EC50 (S. mansoni schistosomula; [9]) [nM]	Motility (M) Mean score [2]	Phenotype (P) Mean score [2]	MIC90 [3, 10] [µg/mL]	MIC90 (E. coli ATCC 25922; [11]) [µg/mL]	MIC90 (S. epidermidis NTCT11077; [12]) [µg/mL]	MIC90 [4, 13] [µg/mL]	MIC90 (MRSA USA 300) [µg/mL]	MIC90 (B. cereus) [µg/mL]	other results
COc1ccc(Nc2nc3ccc([N+](=O)[O-])cc3nc2Nc2ccc(OC)c(C(F)(F)F)c2)cc1C(F)(F)F [Compound 12, N^2, N^3-bis(4-methoxy-3-(tritluoromethyl)phenyl)-6-nitroquinoxaline-2,3-diamine]	31.2 (≈ 56.5 µM)	31.2 (≈ 56.5 µM)	< 62.5	77.8	20.1	4.76	4	62.5 (≈ 113 µM)	9	610	650	570	4.45	4.70	> 125	> 125	< 62.5	> 125	15.6 (≈ 28.2 µM)		
O=[N+]([O-])c1ccc2nc(Nc3cccc(Cl)c3)c(Nc3cccc(Cl)c3)nc2c1 [Compound 5, N^2, N^3-bis(3-chlorophenyl)-6-nitroquinoxaline-2,3-diamine]	3.91 (≈ 9.17 µM)	3.91 (≈ 9.17 µM)						< 3.91	5		1300	1220	4.20	4.70					3.91 (≈ 9.17 µM)	125 (≈ 293 µM)	MIC90 ([3]; Pseudomonas aeruginosa): > 125 µg/mL; MIC90 (E. coli ATCC 25922): > 125 µg/mL; MIC90 (S. epidermidis NTCT11077; NTCT11077): < 62.5 µg/mL; MIC90 [4]: > 125 µg/mL
O=[N+]([O-])c1ccc2nc(Nc3ccc(C(F)(F)F)cc3)c(Nc3ccc(C(F)(F)F)cc3)nc2c1 [Compound 11, 6-nitro-N^2, N^3-bis(4-(trifluoromethyl)phenyl)quinoxaline-2,3-diamine]	3.91 (≈ 7.93 µM)	< 3.91	< 62.5	419	68.8	6.5	4	0.98 (≈ 1.99 µM)	33	480	530	420	4.17	4.28	> 125	> 125	< 62.5	31.2 (≈ 63.3 µM)	< 3.91		half-life ([1]; male, C57/BL6, mouse, in vivo, po, 2.5 mg/kg): 3.74 h; AUC(0-inf) [1, 5]: 444 ng·h/mL; MRT inf [1, 5]: 7.84 h; AUCExtra [1, 14]: 1.82%; AUMCExtra [1, 14]: 6.77%
O=[N+]([O-])c1ccc2nc(Nc3ccc(F)c(C(F)(F)F)c3)c(Nc3ccc(F)c(C(F)(F)F)c3)nc2c1 [Compound 7, N^2, N^3-bis(4-fluoro-3-(trifluoromethyl)phenyl)-6-nitroquinoxaline-2,3-diamine]	7.81 (≈ 14.8 µM)	< 3.91		89.6	21.2	4.75	4		14		540	540	4.56	5.00					< 3.91	125 (≈ 236 µM)	MIC90 (S. aureus ATCC 29213): 1.95 µg/mL (≈ 3.68 µM); MIC90 ([3]; Pseudomonas aeruginosa): > 125 µg/mL; MIC90 (E. coli ATCC 25922): 62.5 µg/mL (≈ 118 µM); MIC90 (S. epidermidis NTCT11077; NTCT11077): < 62.5 µg/mL; MIC90 [4]: 62.5 µg/mL (≈ 118 µM)
